Measured values published in ChEMBL document CHEMBL3886982, “Substituted bicyclic dihydropyrimidinones and their use as inhibitors of neutrophil elastase activity” (2016).

Molecular target: T1, Neutrophil elastase (Homo sapiens, UniProt P08246)
T1 sequence (P08246 whole entry): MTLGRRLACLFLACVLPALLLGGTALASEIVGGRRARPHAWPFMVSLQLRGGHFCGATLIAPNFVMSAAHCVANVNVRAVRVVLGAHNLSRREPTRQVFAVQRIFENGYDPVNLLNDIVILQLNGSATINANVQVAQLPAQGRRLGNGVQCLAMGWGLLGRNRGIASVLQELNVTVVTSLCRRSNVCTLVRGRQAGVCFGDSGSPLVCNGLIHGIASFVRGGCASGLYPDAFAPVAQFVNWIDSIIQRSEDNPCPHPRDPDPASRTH
Test: Human Neutrophil Elastase Assay: The following buffers were used: Compound buffer: 100 mM Tris, 500 mM NaCl, adjusted to pH 7.5; Assay buffer: 100 mM Tris, 500 mM NaCl, adjusted to pH 7.5, containing 0.01% BSA.Assay conditions: Test compounds were prediluted in DMSO and subsequently in compound buffer (5% DMSO final). 5 μL of these compound dilutions were mixed with 10 μl Neutrophil elastase …

IC50: 7.3 nM
SMILES: CN1C(=O)N(c2cccc(C(F)(F)F)c2)C2=C(C(=O)CC2)C1c1ccc(C#N)cc1-c1ccnn1C (stereo unspecified)
